The values that follow come from patent publication US10889553B2, “Asymmetric triazole benzamide derivatives and the compositions and methods of treatment regarding the same” (NysnoBio Ireland DAC, priority 2017, dated 2021).

In general, EC50 refers to the concentration at which the effect is half-maximal.

Molecules are shown by their SMILES. Where “and” joins values, the source holds several entries; their conditions need not be identical. Equal entries are not always repeated.

This assay addresses T1, Parkin ligase (Homo sapiens, UniProt O60260).
T1 sequence (O60260 1-465): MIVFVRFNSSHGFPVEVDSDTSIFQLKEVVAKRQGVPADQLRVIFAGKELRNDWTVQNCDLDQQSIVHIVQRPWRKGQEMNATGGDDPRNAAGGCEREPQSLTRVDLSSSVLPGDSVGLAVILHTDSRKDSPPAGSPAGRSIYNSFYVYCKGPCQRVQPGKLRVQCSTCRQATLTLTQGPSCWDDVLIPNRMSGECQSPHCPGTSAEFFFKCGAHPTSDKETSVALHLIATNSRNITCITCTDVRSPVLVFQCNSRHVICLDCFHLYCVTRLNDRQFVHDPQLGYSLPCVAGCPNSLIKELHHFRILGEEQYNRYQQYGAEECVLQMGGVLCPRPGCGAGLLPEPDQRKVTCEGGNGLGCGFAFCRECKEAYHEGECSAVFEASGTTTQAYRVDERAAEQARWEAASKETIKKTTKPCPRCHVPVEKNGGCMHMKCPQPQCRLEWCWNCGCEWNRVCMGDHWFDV
The assay is described as follows: Activity-Based Probe Assay using Ubiquitin vinyl sulfone probe (TR-FRET). In kind it is biochemical. The conditions noted are these: heat activated Parkin, HA-Ub-VS probe, activation EC50; read-out: Probe Assay EC50 (μM) [Example 2]. The procedure, abridged:
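Heat-activated His-Parkin (5 min, 58 °C; 40 nM) was preincubated 15 min with compound, then reacted 60 min at 22 °C with 70 nM HA-Ub-VS in 50 mM HEPES pH 8.5, 150 mM NaCl, 0.01% Tween 20, 0.1% BSA. Probe labelling was read by anti-His-Eu/anti-HA-XL665 TR-FRET (665/615 ratio). % activation was normalized to DMSO and 100 nM control activator, then fitted with a four-parameter curve (Bottom=0, Top=100).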
A general note: In TR-FRET formats the signal depends on donor and acceptor labels being close together.
As for `Cc1ccccc1C(=O)Nc1nc(NC(=O)c2ccno2)n(-c2ccccc2)n1` [Compound 7], the EC50 worked out at 12 µM.

For `C#Cc1ccc(C(=O)Nc2nc(NC(=O)c3cccc(N=[N+]=[N-])c3)n(-c3ccccc3)n2)cc1` [Compound 2], the EC50 was determined as 4 µM.

With `Cc1ccccc1C(=O)Nc1nc(NC(=O)c2ccncc2)nn1-c1ccccc1` [Compound 34], the EC50 came to 2 µM.

Turning to `COc1ccccc1C(=O)Nc1nc(NC(=O)c2ccccc2OC)n(-c2ccccc2)n1` [Compound 23], the EC50 came out at 10 µM.

Consider `Cc1ccc(C(=O)Nc2nc(NC(=O)c3ccc(C)cc3)n(-c3ccccc3)n2)cc1` [Compound 21], for which the EC50 was determined as 5 µM.

In the case of `Cc1ccccc1C(=O)Nc1nc(NC(=O)c2ccccc2C)n(-c2ccc(C(F)(F)F)cc2)n1` [Compound 25], the EC50 is 0.9 µM and 2 µM.

For `COc1ccc(C(=O)Nc2nc(NC(=O)c3ccc(OC)cc3)n(-c3ccccc3)n2)cc1` [Compound 37], the EC50 stood at 4 µM.

On to `Cc1ccccc1C(=O)Nc1nc(NC(=O)c2ccccc2C)n(-c2ccc(C#N)cc2)n1` [Compound 35], for which the EC50 was 3 µM.

On to `Cc1ccccc1C(=O)Nc1nc(NC(=O)C2CCCN2)nn1-c1ccccc1` (stereo not drawn) [Compound 20], for which the EC50 turned out to be 2 µM.

On to `Cc1cccc(-n2nc(NC(=O)c3ccccc3C)nc2NC(=O)c2ccccc2C)c1` [Compound 38], for which the EC50 was 5 µM.

Take `Cc1ccccc1C(=O)Nc1nc(NC(=O)c2ccccc2C)n(-c2ccc(N3CCCCC3)cc2)n1` [Compound 44]: the EC50 was determined as 3 µM.

With `O=C(Nc1nc(NC(=O)c2ccccn2)n(-c2ccccc2)n1)c1ccccn1` [Compound 41], the EC50 was 2 µM.

Consider `O=C(Nc1nc(NC(=O)c2ccncc2)n(-c2ccccc2)n1)c1ccncc1` [Compound 33], for which the EC50 turned out to be 3 µM.

With `Cc1ccnc(-c2nc(NC(=O)c3ccccc3C)n(-c3ccccc3)n2)c1` [Compound 124], the 50% effective concentration (EC50) came to 3 µM.

In the case of `Cc1ccccc1C(=O)Nc1nc(NCc2ccccc2)nn1-c1ccc(C(F)(F)F)cc1` [Compound 102], the EC50 is 2 µM.

In the case of `Cc1ccccc1C(=O)Nc1nc(NC(=O)c2ccccc2C)n(-c2ccc(F)cc2F)n1` [Compound 46], the concentration for a half-maximal effect (EC50) was found to be 6 µM.

As for `O=C(Nc1nc(NC(=O)c2cccnc2)n(-c2ccccc2)n1)c1cccnc1` [Compound 40], the EC50 stood at 1 µM.

As for `Cc1ccccc1C(=O)Nc1nc(NC(=O)c2cccnc2)nn1-c1ccccc1` [Compound 6], the EC50 is 2 µM.

With `Cc1ccccc1C(=O)Nc1nc(NC(=O)c2ccccc2C)n(-c2ccc(OC(F)(F)F)cc2)n1` [Compound 42, N,N′-(1-(4-(trifluoromethoxy)phenyl)-1H-1,2,4-triazole-3,5-diyl)bis(2-methylbenzamide)], the EC50 was 1 µM and 3 µM.

Regarding `Cc1ccccc1C(=O)Nc1nc(NC(=O)c2ccccc2C)n(-c2cccc(Cl)c2)n1` [Compound 36], the EC50 was 3 µM and 4 µM.

As for `Cc1ccccc1C(=O)Nc1nc(NC(=O)c2ccccc2C)n(-c2ccccc2F)n1` [Compound 32], the EC50 amounted to 9 µM.

Turning to `Cc1ccccc1C(=O)Nc1nc(NC(=O)c2ccccn2)nn1-c1ccccc1` [Compound 16], the EC50 was determined as 3 µM.

For `Cc1ccc(-n2nc(NC(=O)c3ccccc3C)nc2NC(=O)c2ccccc2C)cc1` [Compound 31], the EC50 is 4 µM.

On to `Cc1ccccc1C(=O)Nc1nc(NC(=O)c2ccccc2C)n(-c2ccc(F)c(F)c2)n1` [Compound 24], for which the EC50 turned out to be 3 µM.

Consider `Cc1ccccc1C(=O)Nc1nc(NC(=O)c2ccccc2C)n(-c2cccc(F)c2)n1` [Compound 39], for which the EC50 came to 4 µM.

Consider `Cc1ccccc1C(=O)Nc1nc(NC(=O)c2cnccn2)n(-c2ccccc2)n1` [Compound 17], for which the EC50 is 10 µM.

As to `Cc1ccccc1C(=O)Nc1nc(NC(=O)c2ccccc2C)n(-c2ccccc2Cl)n1` [Compound 26], the EC50 amounted to 6 µM.
